# pIC50: −log10 of the molar value.
# Columns and labels:
# recombinant human HDAC6 = molecular target: T1, recombinant human HDAC6 (Homo sapiens, UniProt Q9UBN7); test: Enzymatic screening on recombinant human HDAC6; type: biochemical; settings: Table 2; read-out: HDAC6 IC50
# T1 sequence (Q9UBN7 1-1215): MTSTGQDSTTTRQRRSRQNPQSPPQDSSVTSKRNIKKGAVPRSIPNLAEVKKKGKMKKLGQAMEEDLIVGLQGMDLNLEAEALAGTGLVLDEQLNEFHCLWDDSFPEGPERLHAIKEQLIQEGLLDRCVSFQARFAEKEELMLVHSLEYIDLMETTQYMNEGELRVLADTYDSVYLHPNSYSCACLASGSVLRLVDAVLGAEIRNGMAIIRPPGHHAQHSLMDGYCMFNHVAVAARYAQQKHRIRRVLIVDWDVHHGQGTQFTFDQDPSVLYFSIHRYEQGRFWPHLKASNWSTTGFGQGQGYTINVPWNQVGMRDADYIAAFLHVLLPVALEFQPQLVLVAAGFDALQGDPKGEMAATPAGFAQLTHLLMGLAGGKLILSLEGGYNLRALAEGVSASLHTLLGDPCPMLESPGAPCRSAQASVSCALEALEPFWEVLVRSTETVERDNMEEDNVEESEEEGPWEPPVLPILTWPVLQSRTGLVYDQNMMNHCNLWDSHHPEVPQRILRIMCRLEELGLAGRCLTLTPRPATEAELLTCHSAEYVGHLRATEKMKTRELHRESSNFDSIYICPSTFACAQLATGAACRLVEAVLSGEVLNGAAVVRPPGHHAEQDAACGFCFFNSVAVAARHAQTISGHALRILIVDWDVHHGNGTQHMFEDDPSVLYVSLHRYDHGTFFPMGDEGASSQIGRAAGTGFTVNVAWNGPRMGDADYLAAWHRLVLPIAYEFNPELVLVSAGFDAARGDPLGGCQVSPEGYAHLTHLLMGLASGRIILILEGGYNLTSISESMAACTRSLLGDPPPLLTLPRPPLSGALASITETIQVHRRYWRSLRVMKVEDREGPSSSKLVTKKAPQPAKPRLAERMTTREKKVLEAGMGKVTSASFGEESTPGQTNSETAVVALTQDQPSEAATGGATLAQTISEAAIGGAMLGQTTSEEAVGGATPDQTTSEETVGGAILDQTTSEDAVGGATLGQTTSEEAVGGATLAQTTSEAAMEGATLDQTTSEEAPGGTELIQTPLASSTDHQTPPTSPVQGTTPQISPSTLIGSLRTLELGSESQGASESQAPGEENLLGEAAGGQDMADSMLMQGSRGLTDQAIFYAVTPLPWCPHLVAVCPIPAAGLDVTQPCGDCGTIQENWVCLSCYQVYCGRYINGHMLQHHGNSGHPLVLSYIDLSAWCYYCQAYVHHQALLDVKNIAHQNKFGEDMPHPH
# Summary of the method: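 Recombinant human HDAC isoforms were incubated with compound at 30 °C for isoform-specific times. Fluor de Lys, Fluor de Lys-Green or trifluoroacetyl-lysine substrate in Tris-HCl pH 8 buffer with NaCl, Tween-20 and glycerol was then added, followed by reaction at 30 °C.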
# [1] = tested on: B 697 promyelocytic cell line; test: Cytotoxicity on 697 cell line (CellTiter 96); type: cell-based; settings: 72 hours incubation, read-out: 697 TOXICITY
# Procedure: (§1) Cytotoxic activity was evaluated on B 697 […] cell line for all synthesized compounds and on peripheral blood mononuclear cells (PBMCs) for compounds showing a good potency/selectivity profile.
# (§2) Cells were seeded in plate (2×10^4 cells per well for 697, 5×10^5 cells per well for PBMCs). The test compounds (concentrations from 1.5 nM to 10000 nM for PBMCs and from 1 nM to 10000 nM for 697) were added after 24 hours and incubated 72 hours. The molecules cytotoxic activity was evaluated using CellTiter 96© Aqueous One Solution Cell Proliferation Assay (Promega), which measures the mitochondria function, following the manufacturer's instructions.
# [2] = tested on: peripheral blood mononuclear cells (PBMCs); test: Cytotoxicity on PBMCs (CellTiter 96); type: cell-based; settings: PBMC, 72 h; read-out: PBMC TOXICITY (72 h)
# Procedure: as §1, §2
# [3] = Stability to Phase I metabolism in rat S9 liver fraction; type: in vitro ADME; settings: after 90 min, 37° C.
# Summary of the method: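 Phase I stability in human and rat hepatic S9 at 37 °C, sampled up to 90 min. Samples were stopped with acidified acetonitrile on ice, then quantified by HPLC-UV or LC-MS/MS.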
# Stability in rat plasma = type: in vitro ADME; settings: after 4 hours, 37° C.
# Summary of the method: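 Compounds incubated at 37° C in rat or human plasma at 50 μM (UV/HPLC) or 1 or 2 μM (LC-MS/MS) for 0–4 h. Reaction stopped with acidified acetonitrile on ice; percent remaining versus initial amount and plasma half-life calculated.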
Structure (SMILES),pIC50 (recombinant human HDAC6),pIC50 [1],pIC50 [2],residual percentage in rat S9 fraction [3] [%],residual percentage in rat plasma (Stability in rat plasma) [%]
"Cc1nc(N2CCOCC2)sc1-c1nnc(Sc2c(F)cc(C(=O)NO)cc2F)n1C [comp. 9, 3,5-difluoro-N-hydroxy-4-((4-methyl-5-(4-methyl-2-morpholinothiazo-5-yl)-4H-1,2,4-triazol-3-yl)thio)benzamide]",7.10,< 5.00,< 5.00,75,106
"Cn1c(Sc2c(F)cc(C(=O)NO)cc2F)nnc1-c1ccc(CN2CCCCC2)cc1 [comp. 16, 3,5-difluoro-N-hydroxy-4-((4-methyl-5-(4-(piperidin-1-ylmethyl)phenyl)-4H-1,2,4-triazol-3-yl)thio)benzamide]",8.30,5.10,5.12,74,75
"Cc1nc(N2CCOCC2)sc1-c1nnc(Cc2ccc(C(=O)NO)cc2)o1 [comp. 75, 4-[[5-(4-methyl-2-morpholino-thiazol-5-yl)-1,3,4-oxadiazol-2-yl]methyl]benzenecarbohydroxamic acid]",8.40,5.92,6.29,75,116
"COc1cccc(-c2nnc(Sc3ccc(C(=O)NO)cc3)n2C)c1 [comp. 78, 4-[[5-(3-methoxyphenyl)-4-methyl-1,2,4-triazol-3-yl]sulfanyl]benzenecarbohydroxamic acid]",7.70,4.65,5.22,,
"Cn1c(Sc2ccc(C(=O)NO)cc2)nnc1-c1ccc2c(c1)OCO2 [comp. 84, 4-[[5-(1,3-benzodioxol-5-yl)-4-methyl-1,2,4-triazol-3-yl]sulfanyl]benzenecarbohydroxamic acid]",7.68,5.28,5.35,,
"O=C(NO)c1ccc(Cn2nnc(-c3nccc4ccccc34)n2)cc1 [comp. 87, 4-[[5-(1-isoquinolyl)tetrazol-2-yl]methyl]benzenecarbohydroxamic acid]",7.70,5.18,5.22,77,0
"COC(=O)c1ccc(Cc2nnn(Cc3c(F)cc(C(=O)NO)cc3F)n2)cc1 [comp. 154, methyl 4-[[2-[[2,6-difluoro-4-(hydroxycarbamoyl)phenyl]methyl]tetrazol-5-yl]methyl]benzoate]",7.49,4.64,< 5.00,,
"COC(=O)c1ccc(-c2nnn(Cc3ccc(C(=O)NO)cc3)n2)nc1 [comp. 156, methyl 6-[2-[[4-(hydroxycarbamoyl)phenyl]methyl]tetrazol-5-yl]pyridine-3-carboxylate]",7.21,5.80,< 5.00,,
"COC(=O)c1ccc(-c2nnnn2Cc2ccc(C(=O)NO)cc2)nc1 [comp. 157, methyl 6-[1-[[4-(hydroxycarbamoyl)phenyl]methyl]tetrazol-5-yl]pyridine-3-carboxylate]",7.57,6.04,6.03,,
"Cn1c(Cc2cccc3cccnc23)nnc1Sc1c(F)cc(C(=O)NO)cc1F [comp. 164, 3,5-difluoro-4-[[4-methyl-5-(8-quinolylmethyl)-1,2,4-triazol-3-yl]sulfanyl]benzenecarbohydroxamic acid]",7.35,5.85,6.18,,
"Cn1c(Sc2c(F)cc(C(=O)NO)cc2F)nnc1-c1c(F)cccc1F [comp. 165, 4-[[5-(2,6-difluorophenyl)-4-methyl-1,2,4-triazol-3-yl]sulfanyl]-3,5-difluoro-benzenecarbohydroxamic acid]",8.10,4.26,< 5.00,,
"CN1CCN(c2cccc(-c3nnc(Sc4c(F)cc(C(=O)NO)cc4F)n3C)c2)CC1 [comp. 166, 3,5-difluoro-4-[[4-methyl-5-[3-(4-methylpiperazin-1-yl)phenyl]-1,2,4-triazol-3-yl]sulfanyl]benzenecarbohydroxamic acid]",8.05,4.21,< 5.00,,
"Nc1ccc(-c2nnnn2Cc2c(F)cc(C(=O)NO)cc2F)cc1 [comp. 172, 4-[[5-(4-aminophenyl)tetrazol-1-yl]methyl]-3,5-difluoro-benzenecarbohydroxamic acid]",8.10,4.21,< 5.00,,
"NCc1ccc(-c2nnn(Cc3ccc(C(=O)NO)cc3)n2)cc1 [comp. 173, 4-[[5-[4-(aminomethyl)phenyl]tetrazol-2-yl]methyl]benzenecarbohydroxamic acid]",8.70,5.72,6.02,,
"NCc1ccc(-c2nnn(Cc3c(F)cc(C(=O)NO)cc3F)n2)cc1 [comp. 175, 4-[[5-[4-(aminomethyl)phenyl]tetrazol-2-yl]methyl]-3,5-difluoro-benzenecarbohydroxamic acid]",8.40,5.00,5.90,,
"NCc1ccc(-c2nnnn2Cc2c(F)cc(C(=O)NO)cc2F)cc1 [comp. 176, 4-[[5-[4-(aminomethyl)phenyl]tetrazol-1-yl]methyl]-3,5-difluoro-benzenecarbohydroxamic acid]",7.26,4.30,5.28,,
"Cn1c(Sc2c(F)cc(C(=O)NO)cc2F)nnc1C1(c2ccccn2)CC1 [comp. 177, 3,5-difluoro-4-[[4-methyl-5-[1-(2-pyridyl)cyclopropyl]-1,2,4-triazol-3-yl]sulfanyl]benzenecarbohydroxamic acid]",7.68,4.30,< 5.00,,
"Cn1c(Sc2c(F)cc(C(=O)NO)cc2F)nnc1C1(c2cccnc2)CC1 [comp. 178, 3,5-difluoro-4-[[4-methyl-5-[1-(3-pyridyl)cyclopropyl]-1,2,4-triazol-3-yl]sulfanyl]benzenecarbohydroxamic acid]",7.64,4.30,< 5.00,,
"Cn1c(Sc2c(F)cc(C(=O)NO)cc2F)nnc1-c1cccc(CN2CCCCC2)c1 [comp. 181, 3,5-difluoro-4-[[4-methyl-5-[3-(1-piperidylmethyl)phenyl]-1,2,4-triazol-3-yl]sulfanyl]benzenecarbohydroxamic acid]",8.00,4.30,< 5.00,,
"Cn1c(Sc2c(F)cc(C(=O)NO)cc2F)nnc1-c1cccc(CN2CCOCC2)c1 [comp. 182, 3,5-difluoro-4-[[4-methyl-5-[3-(morpholinomethyl)phenyl]-1,2,4-triazol-3-yl]sulfanyl]benzenecarbohydroxamic acid]",7.80,4.30,≤ 4.00,,
"CN(Cc1ccccc1)Cc1cccc(-c2nnc(Sc3c(F)cc(C(=O)NO)cc3F)n2C)c1 [comp. 184, 4-[[5-[3-[[benzyl(methyl)amino]methyl]phenyl]-4-methyl-1,2,4-triazol-3-yl]sulfanyl]-3,5-difluoro-benzenecarbohydroxamic acid]",7.77,4.83,≤ 4.00,,
